Reference: patent US20120265121A1, “PHTHALOCYANINE-BASED ANTIFUNGAL AGENTS” (CASE WESTERN RESERVE UNIVERSITY, priority 2011, published 2012)

Key:
[1] = test system: C. albicans (strain SC-5134); assay: Chromatin condensation by confocal microscopy; assay type: cell-based, Candida albicans; details: highest dose of Pc 4-PDT or peroxide, 24 hr after treatment
Experimental: Confocal Microscopy: To investigate the uptake and localization of Pc 4, cells in standard growth medium plus 10% Fetal Bovine Serum (FBS) were loaded with 0.2 μM Pc 4 and incubated for 16 to 18 hr. Thirty minutes prior to imaging Pc 4, 50 nM MitoTracker Red (Invitrogen, Carlsbad, Calif., USA) or 50 μg/mL AlexaFluor 488-conjugated Concanavalin (Con) A (Invitrogen, Carlsbad, Calif., USA) and/or 10 μg/mL Hoechst 33342 (Invitrogen, Carlsbad, Calif., USA) was loaded onto cells. Five to 10 μL of stained cells were placed on a slide with a glass coverslip and all images acquired using an UltraVIEW VoX spinning disk confocal system (PerkinElmer, Waltham, Mass., USA), which was mounted on a Leica DMI6000B microscope (Leica Microsystems, Inc., Bannockburn, Ill., USA) equipped with a HCX PL APO 100×/1.4 oil immersion objective. Confocal images of Pc 4 fluorescence, MitoTracker Red, ConA (or FITC-labeled Annexin V) and Hoechst 33342 were collected using solid-state diode lasers, with 640-nm, 561-nm, 488-nm and 405-nm excitation light, respectively, and with appropriate emission filters.

[2] = test system: C. albicans (strain SC-5134); assay: FITC-labeled Annexin V staining of protoplasts (phosphatidylserine externalization); assay type: cell-based, Candida albicans; details: positive controls: 20 mM H2O2 or 60 μM acetic acid, 4 hr
Experimental: Cells were then incubated for 4 hr before staining with FITC-labeled Annexin V. FIG. 4(a) provides confocal images of FITC-labeling of cells that had been treated with H2O2 or Pc 4-PDT. Scale bar, 20 μm. FIG. 4(b) provides a bar graph showing the results. For each experiment over 50-100 protoplasts cells were counted per sample. […] Cells were counted by eye using a Zeiss AxiovertTM S100 inverted epifluorescence microscope. Values represent the mean±S.E. from at least three independent experiments. […] Apoptosis Analyses: (A) FITC-labeled Annexin V staining-To assess the externalization of phosphatidylserine, protoplasts of C. albicans were stained with FITC-labeled Annexin V using the Annexin V-FLUOS staining kit (Roche, Germany) with minor modifications. Madeo et al., J Cell Biol 139:729-734 (1997); Park et al., Biochem Biophys Res Commun 394:170-172 (2010). Briefly, control and treated cells were washed three times with 1× PBS before incubating at 37° C. for 30 min in a protoplasting solution (50 mM KH2PO4, 5 mM EDTA and 50 mM DTT). Then cells were digested at 37° C. for 45 min in an enzyme solution (50 mM K2HPO4, 40 mM 2-mercaptoethanol, 3 μg/mL Chitinase, 1.8 μg/mL […], 0.15 mg/mL Zymolyase and 2.4 M sorbitol). 1× PBS was added to each sample and incubated for 30 min at room temperature in all experiments. Protoplasts were then incubated with 100 μL of Annexin V-FLUOS labeling solution for 15 min at 25° C. FITC-labeled Annexin V fluorescence was detected by both widefield (Leica DMI6000B microscope; Leica Microsystems, Inc., Bannockburn, Ill., USA) and confocal fluorescence microscopy.

Row | SMILES | chromatin condensation [1] | Annexin V positive cells [2] [%]
1 | OO [H2O2, hydrogen peroxide, reference compound] | detected | ~27
2 | CC(=O)O [acetic acid] | – | ~27
